Reference: patent US10201532B2, “Compounds and their use” (ALLECRA THERAPEUTICS GMBH, priority 2010, dated 2019)
Several values for one entry are separate records, joined by “and”; a condition that tells them apart may be missing. Equal entries are not always repeated.

Key:
[1] = tested on: K. pneumoniae ATCC BAA-1705 (KPC2); test: Disk zone of inhibition, antibiotic + Compound-1 on same disk (Methodology 2); type: cell-based, Klebsiella pneumoniae
Description: (§1) In this experiment, Compound-1 is used as a diagnostic reagent for the detection of β-lactamases belonging to the families KPC & ESBL (e.g., SHV18) producing Enterobacteriaceae. A simple set of absorbent paper disks impregnated with antibiotic on agar medium is used for the detection.
(§2) • 0.5 McFarland of the test organism was inoculated at 1:10 dilution on Muller • Hinton Agar plates • Test organisms: Klebsiella pneumoniae (K.p) ATCC BAA-1705, Klebsiella pneumoniae ATCC 700603, Escherichia coli (E.c) Ecoli233 • Carbapenem (e.g., Imipenem [IPM] 10 μg) and cephalosporin (e.g., Ceftazidime [CAZ] 30 μg) paper disks (7 mm) were placed on the inoculated agar plates • Compound-1 (60 μg) disk was placed at a distance of 7 & 10 mm from the carbapenem and cephalosporin disks. • The presence of expressed carbapenemases or ESBLs was measured as the expansion of Imipenem or Ceftazidime's inhibition zones due to synergy in the presence of Compound-1.
(§3) The methodology remains the same as Methodology 1 except the following change • Compound-1 (60 μg) was added on the same disk in combination with a carbapenem (e.g., Imipenem 10 μg) or cephalosporin (e.g., Ceftazidime 30 μg) and placed on the inoculated agar plate. • The presence of the expressed carbapenemases or ESBLs was measured as an increase in Imipenem or Ceftazidime's zone diameter in combination with Compound-1 compared to antibiotic alone. Results

[2] = tested on: K. pneumoniae ATCC 700603 (SHV18); test: as above; type: cell-based, Klebsiella pneumoniae
Description: as §1
as §2, with “Compound-1. Results:” for “Compound-1.”
as §3

[3] = tested on: KPC-2 producing K. pneumoniae (ATCC BAA-1705); test: Synergistic broth micro-dilution MIC (checkerboard); type: cell-based, Klebsiella pneumoniae; conditions: ATCC BAA-1705
[4] = tested on: K. pneumoniae UMM3 (KPC2); test: Synergistic broth micro-dilution MIC; type: cell-based, Klebsiella pneumoniae; conditions: BLI at 4 μg/mL
[5] = tested on: K. pneumoniae NCTC 13438 (KPC3); test: Synergistic broth micro-dilution MIC; type: cell-based, Klebsiella pneumoniae; conditions: BLI at 4 μg/mL
[6] = target: T1, crude KPC-2 enzyme extract (Klebsiella pneumoniae, UniProt Q9F663); test: β-Lactamase inhibitory assay with CENTA substrate; type: biochemical
T1 construct: enzyme extracts from KPC-2 producing and KPC-3 expressing bacterial gram negative strains were used; endogenous in cells; host or cells: KPC-2 producing gram-negative strain
How it was run: (§4)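 Enzyme extracts from KPC-2-producing and KPC-3-expressing Gram-negative strains served as β-lactamase source. Inhibition by test compound measured with CENTA as chromogenic β-lactamase substrate; IC50 determined.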

[7] = target: crude KPC-3 enzyme extract (UniProt Q9F663, H272Y, species not given); test: β-Lactamase inhibitory assay with CENTA substrate; type: biochemical; conditions: also headed KPC2
How it was run: as §4

[8] = Ceftazidime 30 μg + Compound-1 60 μg on same disk
[9] = Imipenem 10 μg + Compound-1 60 μg on same disk

## C[n+]1ccn(C[C@@]2(C)[C@H](C(=O)[O-])N3C(=O)C[C@H]3S2(=O)=O)n1 [Compound-1, 1-{[(2S,3S,5R)-2-Carboxy-3-methyl-4,4,7-trioxo-4-thia-1-azabicyclo[3.2.0]hept-3-yl]methyl}-3-methyl-1H-1,2,3-triazol-3-ium]
[1]; [8]
  ZOI of CAZ + Compound-1: 18.5 mm
[1]; [9]
  ZOI of IPM + Compound-1: 20 mm
[2]; [8]
  ZOI of CAZ + Compound-1: 23 mm
[2]; [9]
  ZOI of IPM + Compound-1: 25 mm
[3]; BLI at 1 μg/mL
  MIC of Cefquinome in combination with BLI: >64 µg/mL
  MIC of Ceftiofur in combination with BLI: >64 µg/mL
[3]; BLI at 2 μg/mL
  MIC of Cefepime in combination with BLI: 64 µg/mL
  MIC of Cefotaxime in combination with BLI: 32 µg/mL
  MIC of Cefquinome in combination with BLI: >64 µg/mL
  MIC of Ceftazidime in combination with BLI: >64 µg/mL
  MIC of Ceftiofur in combination with BLI: >64 µg/mL
  MIC of Ceftobiprole in combination with BLI: >64 µg/mL
  MIC of Imipenem in combination with BLI: 4 to 8 µg/mL
  MIC of Meropenem in combination with BLI: 16 µg/mL
[3]; BLI at 4 μg/mL
  MIC of Aztreonam in combination with BLI: >64 µg/mL
  MIC of Cefadroxil in combination with BLI: >64 µg/mL
  MIC of Cefalonium in combination with BLI: >64 µg/mL
  MIC of Cefepime in combination with BLI: 32 µg/mL
  MIC of Cefotaxime in combination with BLI: 16 µg/mL
  MIC of Cefquinome in combination with BLI: 64 µg/mL
  MIC of Ceftazidime in combination with BLI: ≥64 µg/mL
  MIC of Ceftiofur in combination with BLI: >64 µg/mL
  MIC of Ceftobiprole in combination with BLI: >64 µg/mL
  MIC of Ertapenem in combination with BLI: 32 µg/mL
  MIC of Faropenem in combination with BLI: >64 µg/mL
  MIC of Imipenem in combination with BLI: 4 µg/mL
  MIC of Meropenem in combination with BLI: 4 to 8 µg/mL and 8 µg/mL
[3]; BLI at 8 μg/mL
  MIC of Cefepime in combination with BLI: 16 µg/mL
  MIC of Cefotaxime in combination with BLI: 16 µg/mL
  MIC of Cefquinome in combination with BLI: 64 µg/mL
  MIC of Ceftazidime in combination with BLI: 64 µg/mL
  MIC of Ceftiofur in combination with BLI: 64 µg/mL
  MIC of Ceftobiprole in combination with BLI: >64 µg/mL
  MIC of Ertapenem in combination with BLI: 16 µg/mL
  MIC of Faropenem in combination with BLI: >64 µg/mL
  MIC of Imipenem in combination with BLI: 2 µg/mL
  MIC of Meropenem in combination with BLI: 2 to 4 µg/mL
[3]; BLI at 16 μg/mL
  MIC of Aztreonam in combination with BLI: 64 µg/mL
  MIC of Cefadroxil in combination with BLI: >64 µg/mL
  MIC of Cefalonium in combination with BLI: 32 µg/mL
  MIC of Cefepime in combination with BLI: 4 µg/mL
  MIC of Cefotaxime in combination with BLI: 4 µg/mL
  MIC of Cefquinome in combination with BLI: 8 to 16 µg/mL
  MIC of Ceftazidime in combination with BLI: 4 µg/mL
  MIC of Ceftiofur in combination with BLI: 16 to 32 µg/mL
  MIC of Ceftobiprole in combination with BLI: 64 µg/mL
  MIC of Ertapenem in combination with BLI: 8 µg/mL
  MIC of Faropenem in combination with BLI: 64 µg/mL
  MIC of Imipenem in combination with BLI: <0.5 to 1 µg/mL and 1 µg/mL
  MIC of Meropenem in combination with BLI: 1 µg/mL
[3]; BLI at 32 μg/mL
  MIC of Cefquinome in combination with BLI: 2 to 4 µg/mL
  MIC of Ceftiofur in combination with BLI: 4 µg/mL
[3]; BLI at 64 μg/mL
  MIC of Aztreonam in combination with BLI: <0.5 µg/mL
  MIC of Cefadroxil in combination with BLI: 64 µg/mL
  MIC of Cefalonium in combination with BLI: 8 µg/mL
  MIC of Cefepime in combination with BLI: <0.5 µg/mL
  MIC of Cefotaxime in combination with BLI: ≤0.5 µg/mL
  MIC of Cefquinome in combination with BLI: 1 µg/mL
  MIC of Ceftazidime in combination with BLI: 1 µg/mL
  MIC of Ceftiofur in combination with BLI: 2 to 4 µg/mL
  MIC of Ceftobiprole in combination with BLI: ≤0.5 µg/mL
  MIC of Ertapenem in combination with BLI: <0.5 µg/mL
  MIC of Faropenem in combination with BLI: 4 µg/mL
  MIC of Imipenem in combination with BLI: <0.5 to 1 µg/mL
  MIC of Meropenem in combination with BLI: <0.5 µg/mL
[4]
  MIC of Imipenem in combination with BLI: 1 µg/mL
[5]
  MIC of Imipenem in combination with BLI: 32 µg/mL
[6]
  IC50: 190 µM
[7]
  IC50: 10.7 µM
